# Measurements from patent US9891212B2, “Screening method, a kit, a method of treatment and a compound for use in a method of treatment” (ATROGI AB, priority 2013, dated 2018).
# Experiments:
# β3-KO mice [1] = assay: blood glucose over time (glucose tolerance); assay type: in vivo; conditions: 1 mg per kg i.p., FIG. 15
# Method: FIG. 15 is a graph showing variation over time of blood glucose (in mM) in β3-KO mice after ip injection of either saline or BRL 37344 (1 mg per kg). P<0.01 for the effect of BRL 37344 with two-way ANOVA.
# L6-myotubes [2] = assay: 3H-2-deoxy-glucose uptake in L6-myotubes; assay type: cell-based; conditions: for glucose uptake, isoprenaline versus BRL 37344: 2 h stimulation with 10^-5 M, n=7, FIG. 9
# Method: Glucose uptake was measured in L6-myotubes grown in 12-well plates using ^3H-2-dexoy-glucose as previously described (Nevzorova et al. 2002) with minor modifications. L6-cells were differentiated for 7-8 days before the experiment, serum-starved over night in media containing 0.5% fatty-acid free BSA and stimulated with BRL 373 44 or Isoprenaline totally 2 h, unless otherwise stated. SQ 22 536 or ICI 118 551 were added 30 min before stimulation. 25 min before the end of the experiment, cells were washed twice in warm PBS and kept in glucose-free DMEM together with the different drugs for 10 min before 50 nM ^3H-2-deoxy-glucose was added for additional 6 minutes. The reaction was terminated by washing the cells in ice-cold PBS three times. Cells were lysed in 0.2 NaOH for 1 h in 60° C. and the radioactivity detected by liquid scintillation (scintillation buffer Emulsifier Safe, Perking Elmer and analysis is a Tri-Carb® 2800TR from Perkin Elmer).
# L6-myotubes [3] = assay: western blot for detection of phospho-CREB in L6-myotubes; assay type: cell-based; conditions: 10^-5 M, 10 to 120 min, FIGS. 5 and 6
# Method: L6-myotubes were harvested and subjected to western blot for detection of phospho-CREB. For measuring protein phosphorylation of a target downstream cAMP cells were treated as indicated and harvested in pre-warmed SDS sample buffer containing 50 mM dithiothreitol, sonicated and boiled for 5 min. Proteins were separated on a 12% polyacrylamide gel for 3 h at 80 V. The proteins were transferred onto Hypbond-P PVDF membrane (GE Healthcare) which was blocked in milk for 1 h and probed with primary antibodies. All antibodies were purchased from Cell Signaling and diluted 1:1000: Primary antibodies were detected using a secondary antibody (horseradish peroxidase-linked anti-rabbit IgG, #7074) diluted 1:2000 and enhanced chemiluminescence (ECL plus, GE Healthcare). Photos were taken in a CCD camera (Fuji Las 1000) and quantification performed in software ImageJ.
# Lanes 1 and 7=basal, 2-6=isoprenaline treatment for 10, 15, 30, 60 and 120 min, 8-12=BRL 37344 treatment for 10, 15, 30, 60 and 120 min. […] Quantification of n=3 blots (FIG. 6).
# L6 skeletal muscle cells = assay: cAMP levels in L6 skeletal muscle cells (alpha-screen cAMP kit); assay type: cell-based
# Method: L6 myocytes were obtained from ATCC and grown in Dulbecco's Modified Eagle's Medium (DMEM) containing 4.5 g/L glucose supplemented with 10% fetal bovine serum (FBS), 2 mM L-Glutamine, 50 U/ml penicillin, 50 μg/ml streptomycin and 10 mM HEPES. Cells were plated in 12- or 96-well plates and after reaching confluence differentiation was induces by differentiation media containing 2% FBS.
# L6-cells were differentiated in 96-well plates and after 7 days of differentiation cells serum-starved and treated with drugs in stimulation buffer (HBSS supplemented with 1% BSA and 5 mM HEPES, pH 7.4). To end the reaction cells were harvested in ice-cold lysis buffer (0.3% Tween-20, 5 mM Hepes, 1% BSA and 1 mM IBMX, pH 7.4). Levels of cAMP were detected by an alpha-screen cAMP kit (6760625R from Perkin Elmer) according to the manufactures instruction.
# The cAMP was measured in L6-myotubes after 2 h stimulation. The results (FIG. 3) indicate that BRL 37344 cannot be considered a general beta2-adrenergic receptor agonist (or beta1-adrenergic receptor) stimulating cAMP in skeletal muscle cells.
# β3-KO mice [4] = assay: in vivo 3H-2-deoxy-glucose uptake in soleus and gastrocnemius muscle; conditions: 1 mg/kg i.p., CPM per gram tissue divided by CPM per gram blood, FIG. 14
# Method: β3-KO mice on FVB background, 12-16 weeks old, were anaesthetised with pentobarbital (67 mg/kg). BRL 37344 (1 mg/kg) or saline was injected i.p. about 10 min after induction of anaesthesia. After 20 min ^3H-2-deoxy-glucose (16 nM/130 μCi per kg of mouse) diluted in 100 μl saline was injected. Mice were killed 1 h after injection of 2-deoxy-glucose. Blood sample was taken from heart and soleus and gastrocnemius were dissected out. Tissues were weighed and dissolved in 0.5 M NaOH in 60° C. Radioactivity was detected as described above. The results are expressed as CPM per gram tissue divided by CPM per gram blood.
# GLUT4 = GLUT4 translocation to the plasma membrane in L6 cells (immunofluorescence); assay type: cell-based; conditions: 2 h stimulation, FIGS. 12 and 13
# Method: L6 cells were grown in 8-well culture chamber slides (BD Biosciences, Franklin Lakes, BJ), serum starved overnight and stimulated with insulin, isoproterenol or BRL 37344 for 2 h. Cells were fixed for 5 min with 4% formaldehyde in PBS, quenched with 50 mM glycine in PBS for 10 min, blocked with 5% BSA in PBS and incubated with primary antibodies (diluted in 1.5% BSA in PBS) overnight at 4° C. As primary antibody anti GLUT4 binding to extracellular parts of GLUT4 (Santa Cruz Biotechnology, sc-1606, dilution 1:125) was used. Cells were then washed with PBS and incubated with Alexa Fluor® 488-conjugated goat anti-rabbit IgG (1:500 dilution, 1.5% BSA in PBS) for 1 h. Slides were mounted with ProLong® Gold antifade reagent (Invitrogen) and fluorescence micrographs were obtained (FIG. 12).
SMILES,maximum blood glucose compared to control mice (β3-KO mice [1]),"glucose uptake, isoprenaline versus BRL 37344 (L6-myotubes [2])","BRL 37344 stimulated glucose uptake with beta2 inhibition (L6-myotubes [2]; BRL 37344 10 μM, 2 h, in presence of 10 μM ICI 118551, FIG. 11)","glucose uptake at different concentrations (L6-myotubes [2]; L6-myotubes, 2 h stimulation, n=7, FIG. 8)","glucose uptake at different time points (L6-myotubes [2]; L6-myotubes, BRL 37344 10 μM, FIG. 7)","BRL 37344 stimulated glucose uptake with inhibition of adenylyl cyclase (L6-myotubes [2]; SQ 22536 500 μM added 30 min before stimulation, FIG. 10)",phospho-CREB (downstream target of cAMP) (L6-myotubes [3]),"cAMP levels at different concentrations (L6 skeletal muscle cells; L6-myotubes, 2 h stimulation, FIG. 3)","cAMP at time points examined (L6 skeletal muscle cells; L6 skeletal muscle cells, 0 min to 25 min of contact, FIG. 2)","cAMP over basal (L6 skeletal muscle cells; L6 skeletal muscle cells, FIG. 1)",glucose uptake in both skeletal muscles relative to control mice (β3-KO mice [4]),GLUT4 translocation to the plasma membrane (GLUT4)
"C[C@H](Cc1ccc(OCC(=O)O)cc1)NC[C@H](O)c1cccc(Cl)c1 (relative stereo) [BRL 37344, (±)-(R*,R*)-[4-[2-[[2-(3-chlorophenyl)-2-hydroxyethyl]amino]propyl]phenoxy]acetic acid]",substantially reduced,no significant difference between the responses,fully inhibits,increases glucose uptake,increases during time,does not decrease,not affected,no or little impact on cAMP levels,At no time point examined did BRL 37344 increase cAMP,did not significantly increase cAMP over basal,2-3 times higher,increase of GLUT4 translocation to the plasma membrane
"CC(C)NCC(O)c1ccc(O)c(O)c1 (racemic) [isoprenaline, (RS)-4-[1-hydroxy-2-(isopropylamino)ethyl]benzene-1,2-diol]",,no significant difference between the responses,,,,,,,,,,
